# In BindingDB's records for doi:10.1016/j.bmc.2006.03.021 (Vernalis (R&D), 2006):
# Target: T1, Serine/threonine-protein kinase Chk1 (Homo sapiens, UniProt O14757)
# T1 sequence (O14757 whole entry): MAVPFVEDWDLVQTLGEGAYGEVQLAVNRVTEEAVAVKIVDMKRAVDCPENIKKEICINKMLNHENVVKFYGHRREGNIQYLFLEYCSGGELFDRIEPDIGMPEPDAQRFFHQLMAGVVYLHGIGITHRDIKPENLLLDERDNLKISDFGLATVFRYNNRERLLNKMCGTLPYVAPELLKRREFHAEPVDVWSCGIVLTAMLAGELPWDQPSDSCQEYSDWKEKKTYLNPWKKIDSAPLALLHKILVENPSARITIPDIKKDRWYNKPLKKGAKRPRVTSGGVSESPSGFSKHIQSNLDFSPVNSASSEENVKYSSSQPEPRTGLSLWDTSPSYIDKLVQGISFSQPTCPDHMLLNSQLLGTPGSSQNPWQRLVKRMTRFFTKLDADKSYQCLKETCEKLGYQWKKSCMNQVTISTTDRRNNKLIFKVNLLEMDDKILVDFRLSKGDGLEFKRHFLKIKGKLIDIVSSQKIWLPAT
# Assay: Chk1 Enzymatic Assay
# Settings: pH 7.5; 30 °C
# Procedure: Chk1 kinase activity was assayed in reaction buffer containing substrate peptide, enzyme, and inhibitor in the presence of 100uM ATP/[gamma-33P] ATP. 33P incorporation was measured using a Perkin-Elmer Trilux scintillation counter. The IC50 is the inhibitor concentration, which inhibits 50% of kinase activity that catalyzes the transfer of the terminal phosphate from 33P labeled ATP to the substrate.
row,IC50,SMILES
1,72.7 µM,"NN1C(=O)C([c-]2c(=O)[nH]c3ccc([N+](=O)[O-])cc32)=[S+]C1=S [3-amino-5-[(3Z)-5-nitro-2-oxo-2,3-dihydro-1H-indol-3-ylidene]-2-sulfanylidene-1,3-thiazolidin-4-one]"
2,20.1 µM,"Clc1cc2c(cc1CN=Nc1nnc3c(n1)[nH]c1ccccc13)OCO2 [(1E)-1-[(6-chloro-2H-1,3-benzodioxol-5-yl)methylidene]-2-{5H-[1,2,4]triazino[5,6-b]indol-3-yl}hydrazine]"

# Further lines, the compound ahead of its results:
row,SMILES,IC50
1,Nc1ncnc2nc(SCC(=O)O)[nH]c12 [2-[(6-amino-9H-purin-8-yl)sulfanyl]acetic acid],31.8 µM
2,"COc1ccc(Cl)cc1-c1nnc(Nc2ccc(C(=O)O)cc2)s1 [4-{[5-(5-chloro-2-methoxyphenyl)-1,3,4-thiadiazol-2-yl]amino}benzoic acid]",26.6 µM
3,"Cc1[nH]nc2c1C(c1ccc(O)c(O)c1)C(C#N)C(=N)O2 (stereo unspecified) [6-amino-4-(3,4-dihydroxyphenyl)-3-methyl-1H,4H-pyrano[2,3-c]pyrazole-5-carbonitrile]",20.4 µM
4,"NCCCNc1nc(F)c(Cl)c(C2c3ccccc3Sc3ccccc32)c1F [N-(3-aminopropyl)-5-chloro-3,6-difluoro-4-(9H-thioxanthen-9-yl)pyridin-2-amine]",15.8 µM
